According to patent publication US20140271649A1, “METHODS AND COMPOSITIONS FOR INHIBITING STAPHYLOCOCCUS AGGLUTINATION IN BLOOD” (The University of Chicago, priority 2011, published 2014):

Key:
S. aureus Newman [1] = test: Mouse sepsis survival, S. aureus Newman challenge; assay type: in vivo, BALB/c mice; settings: 10 mg/kg i.p. in 12 hour intervals, mock treated died within 60 hours
S. aureus coa/vwb mutant = test: Mouse sepsis survival, S. aureus coa/vwb mutant challenge; assay type: in vivo, BALB/c mice; settings: 10 mg/kg i.p. every 12 h, vs mock
Method: (§1) Sepsis. Overnight cultures of staphylococcal strains were diluted 1:100 into fresh TSB and grown until they reached an OD600 of 0.4. Bacteria were centrifuged at 7,000×g, washed, and suspended in the one-tenth volume of PBS. Six week-old female BALB/c mice (n=15) (Charles River) were injected retro-orbitally with 1×10^8 CFU (S. aureus Newman, MW2, and N315) or 5×10^7 CFU (S. aureus USA300) suspensions in 100 μl of PBS. Mice were monitored for survival over 10 days. To enumerate staphylococcal load in heart tissue twelve hours post-infection, mice were euthanized by CO2 asphyxyation and hearts were removed during necropsy. Heart tissue was homogenized in PBS, 0.1% Triton X-100. Serial dilutions of homogenate were spread on TSA and incubated for colony formation. The bacterial load in organ tissue was analyzed in pairwise comparisons between wild-type and mutant strains with the unpaired two-tailed Student's t-test. For histopathology, mice infected with S. aureus were euthanized 12 hours after infection. Hearts were removed during necropsy and fixed in 10% formalin for 24 hours at room temperature. […] Data were analyzed in pairwise comparisons between wild-type and mutant strains with the unpaired two-tailed Student's t-test. […]
(§2) Dabigatran etexilate treatment. […] Thrombin time was measured on a STA-R analyzer (Diagnostica Stago).

S. aureus USA300 LAC = test: Mouse sepsis survival, S. aureus USA300 LAC challenge; assay type: in vivo, BALB/c mice; settings: 10 mg/kg i.p. every 12 h; lethal dose S. aureus USA300 LAC; vs mock
Method: as §1, §2

clfA mutant S. aureus = test: Mouse sepsis survival, clfA mutant challenge; assay type: in vivo, BALB/c mice
Method: as §1, §2

clfA (pclfA) variant = test: Mouse sepsis survival, clfA (pclfA) variant challenge; assay type: in vivo, BALB/c mice
Method: as §1, §2

S. aureus Newman [2] = test: Heart tissue histopathology 12 hours after S. aureus Newman infection; assay type: in vivo, BALB/c mice
[3] = Serum IgG after active immunization (ELISA); assay type: in vivo, BALB/c mice; settings: 50 μg protein in CFA, boost in IFA
S. aureus N315 [4] = test: Mouse sepsis survival, MRSA N315 challenge; assay type: in vivo, BALB/c mice; settings: lethal challenge S. aureus N315; Dbg 10 mg/kg, antibodies 5 mg/kg
S. aureus MW2 [5] = test: Mouse sepsis survival, MRSA MW2 challenge; assay type: in vivo, BALB/c mice; settings: lethal challenge S. aureus MW2; Dbg 10 mg/kg, antibodies 5 mg/kg
Coa-prothrombin [6] = settings: literature (Hijikata-Okunomiya and Kataoka, 2003; Vanassche et al., 2010); cited from earlier work
S. aureus Newman [7] = test: Agglutination assay in plasma, S. aureus Newman; assay type: cell-based, Staphylococcus aureus; settings: argatroban treatment, increasing concentrations
Method: Agglutination assay. Overnight cultures of staphylococcal strains were washed in 1 mL 0.85% NaCl and suspended to a final concentration of OD600 4.0 in 1 mL. Bacteria were incubated with 1:500 Syto9 (Invitrogen) for 15 minutes, washed with 1 mL 0.85% NaCl, and suspended in 1 mL saline. Bacteria were mixed 1:1 with EDTA-chelated rabbit plasma (Becton, Dickinson) on a glass microscope slide and incubated for 15 minutes. Samples were viewed and images captured on an Olympus Provis microscope using a 40× objective. For quantification of agglutination, plasma and bacteria were inoculated onto polystyrene C-Chip disposable hemocytometer slides (IN-CYTO). […] For analysis, the largest aggregate in each field of view was outlined in ImageJ and the area of that aggregate measured. Mean area of S. aureus aggregates were determined and normalized by subtracting Newman in saline without plasma from all values. Percent agglutination was calculated by normalizing all mean intensity values to S. aureus Newman in plasma. […] Fold change in agglutination was calculated as the ratio of mean bacterial aggregation area in the presence of antibody compared to control. Statistical significance, P<0.05, was determined by one way analysis of variance (ANOVA), with Dunnett's multiple comparison analysis for post-hoc testing using GraphPad Prism software. […]

S. aureus N315 [8] = test: Agglutination assay in plasma, MRSA N315; assay type: cell-based, Staphylococcus aureus; settings: argatroban (1 mg/mL), OD550 after two hours
S. aureus MW2 [9] = test: Agglutination assay in plasma, MRSA MW2; assay type: cell-based, Staphylococcus aureus; settings: argatroban (1 mg/mL), OD550 after two hours
human alpha-thrombin = human alpha-thrombin (Homo sapiens, UniProt P00734); test: Coagulase activity control: fibrinogen to fibrin conversion by thrombin; assay type: biochemical; settings: 200 ng argatroban, absorbance at 450 nm, compared to mock control
Method: (§3) Coagulase activity. Purified recombinant Coa or vWbp (100 nM) were mixed with human prothrombin (Innovative Research) in 1% sodium-citrate/PBS. After an initial reading, fibrinogen (3 μM) (Sigma) was added and conversion of fibrinogen to fibrin was measured as an increase in turbidity at 450 nm in a plate reader (BioTek) at 2.5 min intervals. As controls, the enzymatic activity of human alpha-thrombin (Innovative Research) or prothombin alone were measured. Argatroban (200 ng, Novaplus) was added to reactions prior to the addition of fibrinogen.

Coa-prothrombin [10] = test: Coagulase activity: fibrinogen to fibrin conversion by Coa-prothrombin; assay type: biochemical, S. aureus / human; settings: 200 ng argatroban, absorbance at 450 nm
Method: as §3

vWbp-prothrombin = molecular target: T1, vWbp-prothrombin (Homo sapiens, UniProt P00734); test: Coagulase activity: fibrinogen to fibrin conversion by vWbp-prothrombin; assay type: biochemical, S. aureus / human; settings: 200 ng argatroban, absorbance at 450 nm
T1 construct: purchased Innovative Research (prothrombin); host or cells: vWbp made in house in E. coli BL21(DE3), Ni-NTA purified
Method: as §3

[11] = in vivo, sc; cited from earlier work

Compound: CCCCCCOC(=O)N=C(N)c1ccc(NCc2nc3cc(C(=O)N(CCC(=O)OCC)c4ccccn4)ccc3n2C)cc1 [dabigatran-etexilate]
- survival after challenge (S. aureus Newman [1]): up to 132 hours
- survival or time-to-death (S. aureus coa/vwb mutant): no effect
- survival of septic mice (S. aureus USA300 LAC): prolonged the survival
- survival and time-to-death (clfA mutant S. aureus; clfA mutant challenge compared to control strain harboring pclfA): increased the survival and time-to-death
- disease outcome (clfA mutant S. aureus; clfA mutant challenge compared to mock treated mice): further improved the disease outcome
- benefit from treatment (time-to-death) (clfA (pclfA) variant): benefited
- agglutination of staphylococcus in heart tissue (S. aureus Newman [2]; dabigatran-etexilate treatment, S. aureus Newman, 12 hours, histopathology): reduced agglutination

Compound: ClfA: purified recombinant S. aureus clumping factor A; used in binding assay and as antigen for active immunization
- frequency of heart lesions (S. aureus Newman [2]; active immunization, challenged twelve hours with wild-type S. aureus Newman): reduced the frequency of heart lesions
- specific IgG antibodies after active immunization [3]: raised specific IgG antibodies

Compound: [H]/N=C(/N)c1ccc(NCc2nc3cc(C(=O)N(CCC(=O)O)c4ccccn4)ccc3n2C)cc1 [dabigatran]
- time-to-death / survival during sepsis (S. aureus N315 [4]): did not prolong the survival
- time-to-death / survival during sepsis (S. aureus MW2 [5]): did not prolong the survival
- inhibition of the proteolytically active Coa-prothrombin complex (Coa-prothrombin [6]): inhibit

Compound: CC1CNc2c(cccc2S(=O)(=O)N[C@@H](CCCNC(=N)N)C(=O)N2CC[C@@H](C)C[C@@H]2C(=O)O)C1 (some centres unmarked) [argatroban]
- agglutination of S. aureus Newman in plasma (S. aureus Newman [7]): interfered with the agglutination
- agglutination of S. aureus N315 in EDTA-plasma (S. aureus N315 [8]): inhibited
- agglutination of S. aureus MW2 in EDTA-plasma (S. aureus MW2 [9]): inhibited
- conversion of fibrinogen to fibrin by thrombin (human alpha-thrombin): blocked
- conversion of fibrinogen to fibrin by Coa-prothrombin (Coa-prothrombin [10]): blocked
- conversion of fibrinogen to fibrin by vWb-prothrombin (vWbp-prothrombin): blocked
- inhibition of the proteolytically active Coa-prothrombin complex (Coa-prothrombin [6]): inhibit

Compound: N=C(N)c1ccc(CNC(=O)[C@@H]2CCN2C(=O)[C@H](NCC(=O)O)C2CCCCC2)cc1 [melagatran]
- dose at which toxicity began [11]: over 5 mg
